Results from ChEMBL document CHEMBL1201862, “PubChem BioAssay data set” (2004).
Calls of active or inactive are those of the source.

Tests used:
[1] = Luminescence Cell-Based Dose Confirmation HTS to Identify Inhibitors of Platelet Dense Granule Release. [Related pubchem assays: 1663 (Primary HTS), 1678 (Summary of Project)]; format: functional
[2] = biological target: Luciferin 4-monooxygenase (Photinus pyralis, UniProt P08659); experiment: inhibition of purified Photinus pyralis luciferase – biochemical, luminescence, dose response (AID 1891)
[3] = tested on: Streptococcus sp. 'group A'; experiment: Streptococcus pyogenes SK(-)GAS viability under kanamycin – luminescence, BacTiterGlo, confirmation, counter-screen for streptokinase expression inhibitor project, dose response (AID 1900); format: functional, organism-based
Streptococcus = experiment: GAS UMAA2166 growth inhibition – luminescence, BacTiterGlo, counter-screen for streptokinase expression inhibitor project, dose response (AID 1915); format: functional, organism-based;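 also: potency for reduction of bacterial viability or growth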
Streptokinase A = biological target: T1, Streptokinase A (Streptococcus pyogenes serotype M1, UniProt P10520); experiment: viability-normalized secreted streptokinase activity reduction – plasminogen activation absorbance, OD405, dose response (AID 1914); format: functional, Streptococcus pyogenes M1 GAS;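 also: secreted streptokinase activity via plasminogen activation per viability signal from cell pellet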
T1 sequence (P10520 whole entry): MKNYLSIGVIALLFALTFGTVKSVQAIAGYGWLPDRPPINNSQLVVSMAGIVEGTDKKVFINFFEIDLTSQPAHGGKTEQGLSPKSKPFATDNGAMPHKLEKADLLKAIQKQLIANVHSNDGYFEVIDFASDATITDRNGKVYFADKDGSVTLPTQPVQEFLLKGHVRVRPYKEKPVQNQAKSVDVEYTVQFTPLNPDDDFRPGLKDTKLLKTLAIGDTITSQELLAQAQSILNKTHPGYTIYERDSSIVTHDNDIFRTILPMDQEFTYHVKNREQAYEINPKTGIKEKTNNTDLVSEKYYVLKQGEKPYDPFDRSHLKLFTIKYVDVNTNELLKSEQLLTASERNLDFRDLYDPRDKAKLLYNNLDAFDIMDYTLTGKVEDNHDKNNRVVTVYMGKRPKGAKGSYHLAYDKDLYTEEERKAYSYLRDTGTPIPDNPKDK

[4] = NIH3T3 cell viability loss – ATP luminescence, mouse fibroblasts, counter-screen, dose response (AID 2010); format: functional, cell-based;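 also: cells exposed to compound for about 90 hours before reading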
[5] = Trypanosoma cruzi growth suppression in host cells – NIH3T3 host cells, beta-gal luminescence, confirmation (AID 2044); format: functional, cell-based;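 also: intracellular parasites grown in NIH/3T3 mouse fibroblasts as host cells; luminescent beta-galactosidase reporter signal from transgenic T. cruzi replicating inside host cells; inhibitors lower the luminescence signal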
Cytochrome P450 2C9 = Cytochrome P450 2C9 (Homo sapiens, UniProt P11712)
Cytochrome P450 1A2 = biological target: T2, Cytochrome P450 1A2 (Homo sapiens, UniProt P05177);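 also: PubChem cytochrome P450 panel assay, CYP1A2 panel member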
T2 sequence (P05177 whole entry): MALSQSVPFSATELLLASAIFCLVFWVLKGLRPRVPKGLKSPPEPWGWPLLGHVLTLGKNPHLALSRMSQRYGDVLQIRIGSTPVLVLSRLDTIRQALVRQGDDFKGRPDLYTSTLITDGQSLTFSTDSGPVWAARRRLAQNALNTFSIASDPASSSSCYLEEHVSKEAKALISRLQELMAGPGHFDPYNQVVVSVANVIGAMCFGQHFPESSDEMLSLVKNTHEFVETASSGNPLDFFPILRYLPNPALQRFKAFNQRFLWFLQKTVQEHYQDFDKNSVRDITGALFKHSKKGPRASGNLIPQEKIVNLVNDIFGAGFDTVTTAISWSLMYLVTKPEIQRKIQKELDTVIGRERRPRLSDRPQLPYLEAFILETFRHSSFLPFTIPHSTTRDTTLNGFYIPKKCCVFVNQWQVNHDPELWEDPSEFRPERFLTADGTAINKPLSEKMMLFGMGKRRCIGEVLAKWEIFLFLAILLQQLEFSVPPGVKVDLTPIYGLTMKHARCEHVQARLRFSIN

Cytochrome P450 2D6 = Cytochrome P450 2D6 (Homo sapiens, UniProt P10635);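 also: CYP2D6 member of a cytochrome P450 panel assay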
[6] = Luminescence Cell-Based Dose Response HTS to Identify Inhibitors of 5'UTR Stem-Loop Driven Prion Protein mRNA Translation in H4 Neuroglioblastoma Cells. [Related pubchem assays: 1827 (Project Summary), 1813 (Primary HTS)]; format: functional
[7] = luciferase reporter signal suppression in cells – H4 neuroglioma cells, luminescence, dose response (AID 1990); format: functional, cell-based
[8] = alpha-synuclein stem-loop luciferase translation blockers – H4 neuroglioma cells, luminescence, confirmation (AID 1988); format: functional, cell-based
[9] = biological target: T3, Zinc finger protein mex-5 (Caenorhabditis elegans, UniProt Q9XUB2); experiment: potency of MEX-5 RNA-binding blockers – biochemical, C. elegans, fluorescence polarization, dose response (AID 1960)
T3 sequence (Q9XUB2 whole entry): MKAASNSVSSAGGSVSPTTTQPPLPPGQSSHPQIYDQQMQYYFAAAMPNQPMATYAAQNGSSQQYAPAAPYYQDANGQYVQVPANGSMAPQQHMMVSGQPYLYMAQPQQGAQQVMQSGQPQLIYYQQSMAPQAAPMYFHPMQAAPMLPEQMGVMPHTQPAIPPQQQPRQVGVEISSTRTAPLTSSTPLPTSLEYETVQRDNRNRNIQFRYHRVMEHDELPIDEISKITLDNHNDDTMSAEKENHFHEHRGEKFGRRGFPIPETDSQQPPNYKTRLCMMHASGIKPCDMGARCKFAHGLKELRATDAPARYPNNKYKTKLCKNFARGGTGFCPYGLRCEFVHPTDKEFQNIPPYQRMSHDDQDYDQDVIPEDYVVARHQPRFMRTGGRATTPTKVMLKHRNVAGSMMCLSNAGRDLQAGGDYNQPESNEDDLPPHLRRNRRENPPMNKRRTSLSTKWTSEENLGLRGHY

[10] = biological target: T4, RNA-binding protein pos-1 (Caenorhabditis elegans, UniProt G5EF15); experiment: disruptors of C. elegans POS-1 RNA interaction – biochemical, fluorescence polarization, dose response (AID 1964);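 also: purified POS-1 fused to maltose binding protein made in E. coli; potency of compounds blocking POS-1 binding to fluorescent RNA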
T4 sequence (G5EF15 whole entry): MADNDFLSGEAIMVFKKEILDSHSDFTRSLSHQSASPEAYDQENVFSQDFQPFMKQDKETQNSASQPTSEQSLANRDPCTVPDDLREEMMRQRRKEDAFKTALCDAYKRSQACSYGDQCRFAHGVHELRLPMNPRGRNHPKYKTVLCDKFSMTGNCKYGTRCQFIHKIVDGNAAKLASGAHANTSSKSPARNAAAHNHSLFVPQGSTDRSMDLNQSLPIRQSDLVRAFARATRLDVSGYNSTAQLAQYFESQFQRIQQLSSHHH

Cytochrome P450 3A4 = Cytochrome P450 3A4 (Homo sapiens, UniProt P08684);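 also: CYP3A4 tested as one member of a cytochrome P450 panel screen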
Cytochrome P450 2C19 = Cytochrome P450 2C19 (Homo sapiens, UniProt P33261); experiment: Cytochrome panel assay with activity outcomes. Panel member name: p450-cyp2c19 Compounds with AC50 equal or less than 10 uM are considered active; format: functional; settings: read-out: AC50
Sequence of Cytochrome P450 2C19 (P33261 whole entry): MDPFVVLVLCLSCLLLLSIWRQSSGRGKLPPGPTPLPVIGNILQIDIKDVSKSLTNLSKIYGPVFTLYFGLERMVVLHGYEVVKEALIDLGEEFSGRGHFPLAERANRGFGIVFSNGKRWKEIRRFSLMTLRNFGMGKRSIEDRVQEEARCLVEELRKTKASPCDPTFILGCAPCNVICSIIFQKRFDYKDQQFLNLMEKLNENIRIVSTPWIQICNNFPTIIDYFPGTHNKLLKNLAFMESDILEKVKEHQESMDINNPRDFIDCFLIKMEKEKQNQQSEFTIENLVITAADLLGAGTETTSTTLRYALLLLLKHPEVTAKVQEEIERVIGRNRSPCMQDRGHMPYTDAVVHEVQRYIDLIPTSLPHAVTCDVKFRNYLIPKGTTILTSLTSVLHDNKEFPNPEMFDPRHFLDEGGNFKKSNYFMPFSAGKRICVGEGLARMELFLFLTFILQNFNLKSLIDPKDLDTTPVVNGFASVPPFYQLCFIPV

Sequence of Luciferin 4-monooxygenase (P08659 whole entry): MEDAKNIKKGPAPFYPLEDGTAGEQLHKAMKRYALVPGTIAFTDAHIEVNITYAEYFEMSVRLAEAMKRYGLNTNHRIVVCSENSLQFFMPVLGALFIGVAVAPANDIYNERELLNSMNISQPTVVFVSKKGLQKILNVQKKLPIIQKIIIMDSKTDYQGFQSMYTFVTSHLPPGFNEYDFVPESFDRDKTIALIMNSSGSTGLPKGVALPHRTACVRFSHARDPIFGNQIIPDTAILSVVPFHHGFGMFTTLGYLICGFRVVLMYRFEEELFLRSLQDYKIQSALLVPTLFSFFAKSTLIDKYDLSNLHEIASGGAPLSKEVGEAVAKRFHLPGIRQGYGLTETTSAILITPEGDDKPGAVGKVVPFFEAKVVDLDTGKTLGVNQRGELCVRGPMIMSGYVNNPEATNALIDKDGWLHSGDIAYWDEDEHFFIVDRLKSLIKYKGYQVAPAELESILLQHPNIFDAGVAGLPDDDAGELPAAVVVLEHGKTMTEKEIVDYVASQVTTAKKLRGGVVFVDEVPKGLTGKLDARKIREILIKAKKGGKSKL
Sequence of Cytochrome P450 2D6 (P10635 whole entry): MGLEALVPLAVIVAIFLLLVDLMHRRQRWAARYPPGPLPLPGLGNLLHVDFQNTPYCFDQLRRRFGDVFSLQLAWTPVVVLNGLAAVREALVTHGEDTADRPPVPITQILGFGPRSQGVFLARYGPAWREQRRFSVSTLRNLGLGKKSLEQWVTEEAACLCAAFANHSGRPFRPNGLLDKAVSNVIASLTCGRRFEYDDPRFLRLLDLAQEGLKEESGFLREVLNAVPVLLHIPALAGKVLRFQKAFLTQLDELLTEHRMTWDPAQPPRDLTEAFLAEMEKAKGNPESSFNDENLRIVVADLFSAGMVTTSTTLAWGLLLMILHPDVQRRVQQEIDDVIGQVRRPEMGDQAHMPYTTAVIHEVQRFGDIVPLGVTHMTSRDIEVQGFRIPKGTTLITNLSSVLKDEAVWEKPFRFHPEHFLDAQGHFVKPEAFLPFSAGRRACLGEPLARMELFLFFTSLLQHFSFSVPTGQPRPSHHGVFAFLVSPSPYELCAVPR
Sequence of Cytochrome P450 2C9 (P11712 whole entry): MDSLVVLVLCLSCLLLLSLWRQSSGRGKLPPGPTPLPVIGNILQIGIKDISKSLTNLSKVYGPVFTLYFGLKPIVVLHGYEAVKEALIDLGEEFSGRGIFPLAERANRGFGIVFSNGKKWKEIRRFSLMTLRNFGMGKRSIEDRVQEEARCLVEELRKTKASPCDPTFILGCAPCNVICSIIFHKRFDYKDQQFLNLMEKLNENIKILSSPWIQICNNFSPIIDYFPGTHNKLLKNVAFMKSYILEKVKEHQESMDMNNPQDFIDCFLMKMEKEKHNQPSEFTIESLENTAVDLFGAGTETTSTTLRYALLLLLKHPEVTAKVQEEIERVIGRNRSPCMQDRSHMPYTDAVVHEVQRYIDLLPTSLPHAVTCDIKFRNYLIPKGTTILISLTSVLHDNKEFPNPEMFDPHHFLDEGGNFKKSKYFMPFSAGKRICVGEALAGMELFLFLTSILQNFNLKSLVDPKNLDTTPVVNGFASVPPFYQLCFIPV
Sequence of Cytochrome P450 3A4 (P08684 whole entry): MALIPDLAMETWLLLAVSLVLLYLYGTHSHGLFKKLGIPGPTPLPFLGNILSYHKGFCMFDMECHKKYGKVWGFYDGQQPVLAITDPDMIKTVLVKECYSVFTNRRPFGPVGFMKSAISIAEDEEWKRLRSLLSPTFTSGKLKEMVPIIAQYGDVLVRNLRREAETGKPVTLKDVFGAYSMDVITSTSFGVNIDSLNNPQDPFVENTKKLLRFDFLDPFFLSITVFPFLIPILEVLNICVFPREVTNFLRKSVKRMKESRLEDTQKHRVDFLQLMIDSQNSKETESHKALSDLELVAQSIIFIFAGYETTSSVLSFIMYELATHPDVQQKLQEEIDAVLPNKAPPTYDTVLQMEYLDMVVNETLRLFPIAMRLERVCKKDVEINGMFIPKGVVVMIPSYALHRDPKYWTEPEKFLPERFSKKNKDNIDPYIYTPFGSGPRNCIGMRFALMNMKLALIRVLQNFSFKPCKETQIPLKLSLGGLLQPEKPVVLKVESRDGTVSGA

In the case of `O=C(COc1ccc(Cl)cc1)Nc1ccc(Cc2ccncc2)cc1`, the EC50 [1] is reported as > 112 µM (not active) and the EC50 [2] is reported as > 112 µM (not active).
In the case of `COc1ccccc1-n1c(O)cc(=O)nc1SCC(=O)Nc1ccc(C)cc1`, the EC50 [3] is reported as 29.9 µM (active), the EC50 (Streptococcus) is reported as 118 µM (active) and the EC50 (Streptokinase A) is reported as > 150 µM (not active).
With `O=[N+]([O-])c1cc(S(=O)(=O)Nc2cccc(Cl)c2)ccc1N=Nc1c(O)[nH]c2ccccc12` the EC50 [4] was > 60 µM (not active), the EC50 [5] was 1.31 µM (active) and the EC50 [3] was 1.69 µM (active). The EC50 (Streptococcus) was 22.2 µM (active) and the EC50 (Streptokinase A) was 27.4 µM (active).
With `COc1cccc(Oc2c(C)oc3c(CN4CCCCC4)c(O)ccc3c2=O)c1` the EC50 [1] was 19.2 µM (active) and the EC50 [2] was > 112 µM (not active).
In the case of `COc1ccccc1CNC(=O)CSc1nc(=O)n(Cc2ccncc2)c2c1CCC2`, the EC50 [3] is reported as > 150 µM (not active), the EC50 (Streptococcus) is reported as > 150 µM (not active) and the EC50 (Streptokinase A) is reported as > 150 µM (not active).
In the case of `Cc1ccc(CN(C(=O)c2csnn2)C(C(=O)NC2CCCC2)c2ccc(C)o2)cc1` (configuration not stated), the EC50 [1] is reported as > 112 µM (not active) and the EC50 [2] is reported as 67.6 µM (active).
For `O=C(N/C(=C/c1cccs1)c1nc2ccccc2[nH]1)c1ccccc1`, the AC50 (Cytochrome P450 2C9) was 7.94 µM (inconclusive), the AC50 (Cytochrome P450 1A2) was 25.1 µM (inconclusive) and the AC50 (Cytochrome P450 2D6) was 28.2 µM (inconclusive).
In the case of `CC(=O)Nc1nnc(S(=O)(=O)N2CCN(c3ccc([N+](=O)[O-])cc3Cl)CC2)s1`, the EC50 (Streptococcus) is reported as > 150 µM (not active) and the EC50 (Streptokinase A) is reported as > 150 µM (not active).
With `COc1cccc(Cn2c(=O)cnc3cnc(N4CCN(C)CC4)nc32)c1` the AC50 (Cytochrome P450 2C9) was 25.1 µM (inconclusive), the AC50 (Cytochrome P450 1A2) was 25.1 µM (inconclusive) and the AC50 (Cytochrome P450 2D6) was 20 µM (inconclusive).
For `CCS(=O)(=O)c1ccc2oc(Nc3ccccc3Cl)nc2c1`, the EC50 [1] was 7.7 µM (active) and the EC50 [2] was 1.75 µM (active).
For `O=C(NC1CCCCC1)C(Cc1ccccc1)N1C(=O)C2C3CCC(C3)C2C1=O` (configuration not stated), the AC50 (Cytochrome P450 2C9) was 0.1 µM (inconclusive) and the AC50 (Cytochrome P450 2D6) was 31.6 µM (inconclusive).
For `COc1cc2c(cc1OC)-c1cc(NC3CCCCC3)nc(=O)n1CC2`, the EC50 [6] was > 120 µM (not active), the EC50 [1] was 2.24 µM (active) and the EC50 [7] was 20 µM (active). The EC50 [8] was 33.2 µM (active) and the EC50 [2] was > 112 µM (not active).
For `N#Cc1cc(NC2CCCC2)c([N+](=O)[O-])cc1C#N`, the EC50 [9] was 41.8 µM (active) and the EC50 [10] was > 300 µM (not active).
In the case of `CN(C)C(=O)c1ccc(-c2ccc3ncnc(Nc4ccccc4)c3c2)cc1`, the AC50 (Cytochrome P450 3A4) is reported as 7.94 µM (inconclusive) and the AC50 (Cytochrome P450 2D6) is reported as 12.6 µM (inconclusive).
For `Brc1cc(-c2ccccc2)nc(-c2ccccc2)n1`, the EC50 [3] was > 150 µM (not active), the EC50 (Streptococcus) was > 150 µM (not active) and the EC50 (Streptokinase A) was > 150 µM (not active).
With `O=C(Nc1ccc(Cl)cn1)c1ccc(-c2ccc(Cl)c(Cl)c2)o1` the EC50 [1] was > 112 µM (not active) and the EC50 [2] was > 112 µM (not active).
In the case of `COC(=O)c1cccc([N+](=O)[O-])c1CN1CCCC(C(N)=O)C1` (configuration not stated), the EC50 [1] is reported as > 112 µM (not active) and the EC50 [2] is reported as > 112 µM (not active).
With `CCOCCn1c(CN(Cc2ccccc2)Cc2ccccc2)nc2c1c(=O)[nH]c(=O)n2C` the AC50 (Cytochrome P450 2D6) was 39.8 µM (inconclusive) and the AC50 (Cytochrome P450 2C19) was 17.8 µM (inconclusive).
For `COc1cccc(N2C(=O)NC(=O)/C(=C/c3ccc4c(c3)Cc3ccccc3-4)C2=O)c1`, the EC50 [9] was > 300 µM (not active) and the EC50 [10] was > 300 µM (not active).
For `CCc1nnc(NS(=O)(=O)c2ccc(NCc3cc(Cl)cc(Cl)c3O)cc2)s1`, the EC50 [3] was 29.5 µM (active), the EC50 (Streptococcus) was > 150 µM (not active) and the EC50 (Streptokinase A) was 50.8 µM (active).
In the case of `Cc1nn(C(C)C(=O)N2CCc3ccccc3C2)c(=O)c2cc3occc3n12` (configuration not stated), the EC50 [1] is reported as > 112 µM (not active) and the EC50 [2] is reported as > 112 µM (not active).
In the case of `COc1ccc(Nc2nc3ccccc3nc2NS(=O)(=O)c2cccs2)c(OC)c1`, the EC50 [9] is reported as 49.7 µM (inconclusive) and the EC50 [10] is reported as 5.66 µM (active).
With `CC1(C)CC(=O)C2=C(C1)OC(N)=C(C#N)C21C(=O)N(CN2CCOCC2)c2ccccc21` (configuration not stated) the EC50 [9] was > 300 µM (not active) and the EC50 [10] was > 300 µM (not active).
In the case of `COC(=O)C1=C(C)N=C2SCCC(=O)N2C1c1ccc(OC(=O)c2ccco2)cc1` (configuration not stated), the EC50 [1] is reported as > 112 µM (not active) and the EC50 [2] is reported as > 112 µM (not active).
For `CN1C(=O)C(=Cc2cc3ccccc3nc2O)C(=O)N(C)C1=O`, the EC50 [9] was > 300 µM (not active) and the EC50 [10] was > 300 µM (not active).
In the case of `COCCOC(=O)c1c(C)nc(SCC(=O)Nc2ccc(C)cc2)c(C#N)c1-c1ccco1`, the EC50 (Streptococcus) is reported as 53.5 µM (active) and the EC50 (Streptokinase A) is reported as > 150 µM (not active).
In the case of `O=S(=O)(Nc1cccc(-c2ccc(N3CCOCC3)nn2)c1)c1ccc(Cl)c(Cl)c1`, the EC50 [3] is reported as 12.6 µM (active), the EC50 (Streptococcus) is reported as 116 µM (active) and the EC50 (Streptokinase A) is reported as 23.5 µM (active).
For `CCOc1cc(/C=C(\C#N)c2nc3ccccc3[nH]2)ccc1OC(C)C(=O)O` (configuration not stated), the EC50 [9] was 50.5 µM (active) and the EC50 [10] was 78.5 µM (active).
With `CCC(C)(C)NC(=O)C(c1cccn1C)N(C(=O)Cn1nnc2ccccc21)c1ccc(OC)cc1` (configuration not stated) the EC50 [9] was > 300 µM (not active) and the EC50 [10] was > 300 µM (not active).
For `C=CCOc1cccc(C2C(C(=O)c3ccc(C)o3)=C(O)C(=O)N2c2nnc(C)s2)c1` (configuration not stated), the EC50 [9] was 210 µM (active) and the EC50 [10] was > 300 µM (not active).
With `CC(C)n1nc(C(=O)Nc2ccccc2N2CCOCC2)c2ccccc2c1=O` the EC50 [1] was 26.7 µM (active) and the EC50 [2] was > 112 µM (not active).
In the case of `O=C(CN1CCC(n2nnc3cc(F)ccc32)CC1)NCCc1ccccc1`, the EC50 [9] is reported as > 300 µM (not active) and the EC50 [10] is reported as > 300 µM (not active).
